Experimental findings from patent US8551956B2, “Compositions containing peptides with non-natural amino acids and methods of use” (Avon Products, Inc., priority 2006, dated 2013) are described below.

In the test the test system is Fibronectin. As to the kind of experiment: Stimulation of fibronectin production in Normal Human Dermal Fibroblasts-Adult, competitive inhibition ELISA of conditioned medium. Format: cell-based. Conditions: in vitro, concentration not given. As for the experimental part: Normal Human Dermal Fibroblasts-Adult (Cascade Biologics) were cultured in 12-well tissue culture treated plates and treated for 72 hours in the presence or absence of test actives. Following incubation, the conditioned medium from each treatment was collected in a 1.7 mL microcentrifuge tube and frozen at −80° C. for subsequent analysis. The assay was in the format of a competitive inhibition ELISA.
Human fibronectin was pre-coated on the wells except for one row, which served as a reference. Standards and samples were pre-incubated with polyclonal rabbit antibody to human fibronectin. The polyclonal antibody was bound to the fibronectin in the standard dilutions, and in the sample, if present. The mixture was then transferred to the human fibronectin-coated plate. Free rabbit anti-human fibronectin was bound to the fibronectin on the plate. Goat anti-rabbit IgG HRP-conjugate reacted with bound rabbit anti-fibronectin. When HRP substrate was added, a blue color developed. The reaction was stopped by the addition of an acid, changing the color to yellow. This color was quantitated using a microplate reader set at 450 nm. The intensity of the color was inversely proportional to the amount of fibronectin in the original sample.
A general note: An ELISA detects its analyte on a solid surface through an enzyme-linked reagent.

Each structure is given as a SMILES string.

With `NCCCC[C@H](N)C(=O)NCCCCC(=O)NCCCC[C@H](N)C(=O)O` [KavaK], the “Fibronectin production, more compared to untreated control fibroblasts” value amounted to 28%.
